# From patent US20220332821A1, “DOSING REGIMEN AND COMBINATION THERAPIES FOR MULTISPECIFIC ANTIBODIES TARGETING B-CELL MATURATION ANTIGEN” (NOVARTIS AG, priority 2019, published 2022)
# “Also recorded” adds a separate entry of the source.
# How the values were obtained:
# [1] = system: BCMA shedding in KMS11 cells; assay: Shed BCMA levels by ELISA after GSI treatment of KMS11 cells; assay type: cell-based, human; conditions: 20 hours, serial dilution from 1 μM
# Protocol: (§1) KMS11-Luc cells were cultured in a 96-well round bottomed plate (Corning #3799) at 1.5×10^5 cells per well in a final volume of 200 μL that included a 12-point, 5-fold serial dilution of AL-102 in RPMI1640 (Gibco #11875-085) supplemented with 20% FBS (Seradigm #1500-500) and L-glutamine (Thermo Fisher #25030-081). The highest starting concentration of AL-102 was 1 μM. Cells were incubated for 20 hours at 37° C./5% CO2. Cells were pelleted, supernatant collected for measurement of shed BCMA levels, and cell pellets stained for evaluation of BCMA membrane expression levels.
# Soluble BCMA levels in supernatant were determined by ELISA following a vendor supplied protocol (R&D Systems #DY193). Briefly, recombinant human BCMA-Fc protein was included in the kit, and used to generate a standard curve. Collected samples were assayed and sBCMA concentrations extrapolated from the standard curve. Quantified values as determined by the kit were divided by 5.5 to correct for a molecular mass difference between BCMA-Fc fusion protein used in the kit as a standard curve (32,554.6 Da) and the mass of endogenously shed BCMA extra-cellular domain (5,899.3 Da). The results were analyzed using SoftMax Pro v5.4.1 and graphed in GraphPad Prism.
# [2] = system: membrane BCMA on KMS11 cells; assay: BCMA membrane expression by flow cytometry after GSI treatment of KMS11 cells; assay type: cell-based, human
# Protocol: as §1
# Cells were pelleted by centrifugation, and supernatants were transferred to a fresh plate and frozen at −80° C. for later sBCMA analysis by ELISA. For membrane BCMA analysis, cell pellets were resuspended in 100 μL BD Stain Buffer containing BSA (BD#554657) and stained with anti-BCMA-PE (Biolegend, clone 19F2 1.25 ul/test) and Fixable Viability Dye eFluor506 (Thermo Scientific, 1:800 dilution) for 30 minutes at 4° C. Samples were analyzed by flow cytometry on a BD LSR Fortessa instrument. FlowJo v10 software was used for analysis. The anti-BCMA antibody binding capacity (ABC) on KMS11 cells was determined using Quantum Simply Cellular beads (Bangs Laboratories) following a vendor supplied protocol. The ABC is an estimate of the quantity of receptors per cell.
# KMS11-Luc cells = assay: RTCC assay with KMS11-Luc and human T cells, BSBM3 and AL-102 matrix, Example 9; assay type: cell-based
# Protocol: To evaluate the ability of AL-102 to enhance the activity of BSBM3, a redirected T cell cytotoxicity (RTCC) assay was performed using human T cells and a BCMA-expressing multiple myeloma cell line treated with dose range combinations of BSBM3 and AL-102 in a 10×8 matrix fashion. Human T cells were enriched from peripheral blood of three healthy human donors. First, peripheral blood mononuclear cells (PBMCs) were fractionated from donor blood using a Ficoll-Paque PLUS density gradient (GE Healthcare #17-1440-02) in Leucosep tubes (Greiner #227290) and stored as viable frozen aliquots in liquid nitrogen. PBMC were thawed and Pan T cells were isolated by negative selection according to manufacturer's recommended protocol (Miltenyi #130-096-535). The unlabeled cell fraction, enriched for T cells, was collected by manual magnetic separation on LS columns (Miltenyi #130-042-401). T cells were prepared in T cell media (TCM) consisting of RPMI-1640 (Gibco #11875-085), 10% FBS (Seradigm #1500-500), 1% Pen/Strep (Life Technologies #15070063), 1% L-glutamine (Thermo Scientific #25030-081), 1% Non-Essential Amino Acids (NEAA) (Life Technologies #11140-050), Sodium Pyruvate (NaPy) (Life Technologies #11360-070), HEPES (Life technologies, Cat #15630080), 0.1% 2-Betamercaptoethanol (2-BME) (Life Technologies, Cat #21985-023). KMS11 multiple myeloma cell line was cultured in RPMI1640 supplemented with 20% FBS (Gibco #11875-085, Seradigm #1500-500). The target MM cell line KMS11 was transduced to constitutively express luciferase (KMS11-Luc), and used to measure cell viability/survival. KMS11-Luc cells were pelleted and resuspended in fresh media immediately prior to plating to remove any basal level of shed BCMA that may be present. 7,500 KMS11-Luc target cells in 10 μL TCM were added to wells of 384-well plates (Corning #3765). 10 μl of BSBM3 at a concentration of 10 nM was serially diluted 5-fold, and 10 μl of AL-102 at a concentration of 1000 nM was serially diluted 5-fold, and dispensed into corresponding wells of the assay plates. 15,000 T cells were added to corresponding wells of the assay plate in 10 μL TCM for an E:T of 2:1. The assay was incubated at 37° C./5% CO2 for 48 hr, followed by measurement of luciferase activity to indicate target cell viability (BrightGlo, Promega #E2650) following manufacturer's protocols. Plates were read on an Envision plate reader. Target cells only (KMS11-Luc) without T cells or antibodies served as control and represent 100% luciferase activity (100% viability). Data were plotted and analyzed using GraphPad Prism. EC50 values were calculated using sigmoidal, 4-parameter non-linear regression curve fit.
smiles,measurement,setting,value
Cc1cccc2c1NC(=O)[C@@H](NC(=O)[C@H](CCC(F)(F)F)[C@H](CCC(F)(F)F)C(N)=O)N=C2c1cccc(F)c1 [AL-102],inhibition of BCMA shedding,[1],effectively inhibited shedding of BCMA from KMS11 cells in a dose-dependent manner
same,increase in cell surface BCMA expression,[2]; 1 μM AL-102 versus untreated KMS11 cells,20 fold
same,average BCMA antibody-binding capacity (ABC),"[2]; KMS11 cells, 1 μM AL-102, 20 hours, untreated ˜14,000","~285,000"
same,AL-102 concentration with minimal effect on BSBM3 potency,KMS11-Luc cells; RTCC combination matrix,≤ 0.32 nM
same,AL-102 concentration with moderate effect on BSBM3 potency,KMS11-Luc cells; RTCC combination matrix,1.6 nM
same,AL-102 concentrations with maximum enhancement of BSBM3 potency,KMS11-Luc cells; RTCC combination matrix,≥ 8 nM
same,effect of AL-102 on RTCC potency of BSBM3 (in words),KMS11-Luc cells; combination with BSBM3,synergistically enhanced the RTCC potency of BSBM3; also recorded: enhanced the RTCC potency of BSBM3 in a dose dependent manner
